Measured values reported in article PMC6480966, “Synthesis, In Silico, and In Vitro Evaluation of Anti-Leishmanial Activity of Oxadiazoles and Indolizine Containing Compounds Flagged against Anti-Targets” (Molecules, 2019).
Where two headings read alike, the source gives them in different places.

How the values were obtained:
[1] = tested on: Leishmania donovani LV9 axenic amastigotes; assay: In vitro anti-leishmanial testing on axenic amastigotes (resazurin); type: cell-based; details: then resazurin 24 h
Description: (§1) Leishmania donovani promastigotes (MHOM/ET/67/HU3/LV9) were cultured with 5% CO2 in M199 complete medium containing M199 medium supplemented with 100 μM adenosine, 0.5 mg/L hemin, 40 mM Hepes pH 7.4 and 10% heat inactivated fetal bovine serum (HIFBS) in the dark at 26 °C. Late log promastigotes diluted at 1 × 10^6/mL in M199 complete medium acidified at pH 5.5 and cultured at 37 °C with 5% CO2 provided the cultures of axenic amastigotes of L. donovani.
Previously described protocols were adapted for evaluation of compounds on L. donovani. For axenic amastigotes, two-fold serial dilutions of the compounds were done in 96-well microplates with 100 μL of complete medium (see above). Axenic amastigotes were then added to each well at a density of […] in a 200 μL final volume. After 72 h of incubation with 5% CO2 at 37 °C, 20 μL of resazurin (450 μM) was added to each well and further incubated with 5% CO2 at 37 °C for 24 h in the dark. Resazurin is reduced to resorufin in living cells and can be then monitored by measuring OD570nm (resorufin) and OD600nm (resazurin; Lab systems Multiskan MS). Compound activity was expressed as IC50 (µM). The drug used for reference was Amphotericin B (AmB).

[2] = tested on: Leishmania donovani LV9 intramacrophage amastigotes; assay: In vitro anti-leishmanial testing on intramacrophage amastigotes (RAW 264.7, Sybr Green I); type: cell-based; details: for SI = CC50/IC50 Intramacro. Amas.: CC50 RAW 264.7 / IC50 intramacrophage amastigotes; for IC50: Leishmania donovani, RAW264.7, RAW 264.7 macrophages, 48 h treatment
Description: as §1
(§2) RAW 264.7 macrophages were grown with 5% CO2 in DMEM complete medium containing Dulbecco’s Modified Eagle’s Medium (DMEM) with 100 U/mL penicillin-streptomycin, and 10% HIFBS at 37 °C.
For intramacrophage amastigote testing, RAW 264.7 macrophages were incubated with 5% CO2 at 37 °C for 24 h after being plated in 96-well microplates at a density of 2 × 10^4 cells per well. Axenic amastigotes were differentiated as described above, centrifuged at 2000 g for 10 min, re-suspended in DMEM complete medium, and added to each well to reach a 16:1 parasite to macrophage ratio. 24 h of infection with 5% CO2 at 37 °C proceeded, and extracellular parasites were removed. This was followed by addition to each well of DMEM complete medium (100 μL) containing two-fold serial dilutions of the compounds from a maximal concentration of 100 μM. The medium was removed following treatment of 48 h and replaced by Direct PCR Lysis Reagent (100 μL; Euromedex) before 3 freeze-thaw cycles at room temperature, addition of 50 μg/mL proteinase K, and a final incubation at 55 °C overnight to allow cell lysis. 10 μL of each cell extract was then added to 40 μL of Direct PCR Lysis reagent containing Sybr Green I (0.05%; Invitrogen). Mastercycler® realplex (Eppendorf) was used to monitor DNA fluorescence. Compound activity was expressed as IC50 (µM). The drug used for reference was Amphotericin B (AmB).

[3] = Cytotoxicity test on macrophages (resazurin); type: cell-based; details: mouse, RAW 264.7 macrophages, 48 h incubation
Description: as §2
(§3) RAW 264.7 macrophages were used for cytotoxicity testing. Cells were plated in 96-well microplates at a density of 2 × 10^4 cells per well. Twenty-four hours of incubation with 5% CO2 at 37 °C followed, and then the medium was removed and to each well, 100 μL of DMEM complete medium containing two-fold serial dilutions of the compounds were added. This was followed by 48 h of incubation with 5% CO2 at 37 °C, after which 10 μL of resazurin (450 μM) was added to each well, and further incubated with 5% CO2, in the dark for 4 h at 37 °C. Cell viability was then monitored as above. Compound cytotoxicity was expressed as CC50 (Cytotoxic Concentration 50%: concentration inhibiting the macrophages growth by 50%).

RAW 264.7 macrophages = assay: Cytotoxicity test on macrophages (resazurin); type: cell-based; details: as defined
Description: as §2, §3

[4] = tested on: Leishmania donovani LV9 axenic amastigotes; assay: In vitro anti-leishmanial testing on axenic amastigotes (resazurin); type: cell-based; details: against Leishmania axenic amastigotes (as worded)
Leishmania = tested on: Leishmania; design: method as in PMID 18353643; details: read-out: IC50 of reference drug miltefosine; cited from earlier work
[5] = Table 3, read-out: Leishmania donovani LV9 Intramacrophage Amastigotes IC50 ± SD
[6] = Table 2, 72 h incubation, read-out: Leishmania donovani LV9 axenic Amastigotes Forms IC50 ± SD
[7] = Table 2, read-out: Leishmania donovani Intramacrophage Amastigotes Forms IC50 ± SD
[8] = Table 2, read-out: Toxicity on RAW 264.7 Macrophages CC50 ± SD

Structure (SMILES)	IC50 ([1]; Table 3, 72 h incubation, read-out: Leishmania donovani LV9 Axenic Amastigotes IC50 ± SD) [µM]	SI = CC50/IC50 Intramacro. Amas. [2]	IC50 [2, 5] [µM]	CC50 at 48 h ([3]; Table 3, read-out: Cytotoxicity on RAW 264.7 Macrophages CC50 ± SD) [µM]	IC50 [1, 6] [µM]	IC50 [2, 7] [µM]	CC50 at 48 h [3, 8] [µM]	melting point [°C]	selectivity index (SI, CC50 for macrophage/IC50 for promastigotes) (RAW 264.7 macrophages)	selectivity index (SI) [4]	IC50 (Leishmania) [µM]
C[C@@H]1[C@H](O)[C@@H](C)/C=C/C=C/C=C/C=C/C=C/C=C/C=C/[C@H](O[C@@H]2O[C@H](C)[C@@H](O)[C@H](N)[C@@H]2O)C[C@@H]2O[C@](O)(C[C@@H](O)C[C@@H](O)[C@H](O)CC[C@@H](O)C[C@@H](O)CC(=O)O[C@H]1C)C[C@H](O)[C@H]2C(=O)O [AmB, Amphotericin B, reference compound]	0.2 ± 0.08	48.7	0.11 ± 0.09	5.36 ± 0.52	–	–	–	–	–	–	–
Cc1csc(C=NNC(=O)c2ccco2)n1 [Compound 1, N’-[(4-Methyl-2-thiazolyl)methylene]furan-2-carbohydrazide]	–	2.2	–	–	11.9 ± 1.87	6.25 ± 1.89	13.9 ± 2.11	121 to 124	–	–	–
O=C(NN=Cc1ccc(Br)s1)c1cccs1 [Compound 2, N’-[(5-Bromo-2-thiophenyl)methylene]thiophene-2-carbohydrazide]	–	2.2	< 5	–	1.09 ± 0.12	2.18 ± 0.01	4.87 ± 0.39	–	≥ 2	2	–
O=C(NN=Cc1ccc(Br)s1)c1ccco1 [Compound 3, N’-[(5-Bromo-2-thiophenyl)methylene]furan-2-carbohydrazide]	–	–	–	–	> 100	> 100	> 100	201 to 202	–	–	–
O=C(NN=Cc1nc2ccccc2s1)c1cccs1 [Compound 4, N’-[(2-Benzothiazolyl)methylene]thiophene-2-carbohydrazide]	–	1.4	–	–	12.5 ± 0.61	11.2 ± 0.62	16.3 ± 1.42	231 to 234	–	–	–
O=C(NN=Cc1nc2ccccc2s1)c1ccncc1 [Compound 5, N’-[(2-Benzothiazolyl)methylene]pyridine-4-carbohydrazide]	–	>1.8	–	–	61.5 ± 5.99	55.2 ± 4.77	> 100	234 to 237	–	–	–
NC(=NO)c1cccc([N+](=O)[O-])c1 [Compound 7, 3-Nitrobenzamidoxime]	–	>2.1	–	–	51.2 ± 4.98	47.2 ± 3.12	> 100	182 to 184	–	–	–
COCc1nc(-c2ccc3c(c2)OCO3)no1 [Compound 8]	–	>1.9	–	–	59.9 ± 6.45	51.3 ± 4.35	> 100	56 to 57	–	–	–
COC(=O)c1c(C(=O)OC)c2ccccn2c1-c1nc2cc([N+](=O)[O-])ccc2[nH]1 [Compound 11, Dimethyl 3-(5-nitro-1H-benzo[d]imidazol-2-yl)indolizine-1,2-dicarboxylate]	–	–	–	–	–	–	–	234	–	–	–
COC(=O)c1c(C(=O)OC)c2c3ccccc3ccn2c1-c1nc2cc([N+](=O)[O-])ccc2[nH]1 [Compound 12, Dimethyl 3-(5-nitro-1H-benzo[d]imidazol-2-yl)pyrrolo[2,1-a]isoquinoline-1,2-dicarboxylate]	–	–	–	–	> 100	> 100	> 100	162	–	–	–
COC(=O)c1cc(-c2nc3cc([N+](=O)[O-])ccc3[nH]2)n2ccc3ccccc3c12 [Compound 13, Methyl 3-(5-nitro-1H-benzo[d]imidazol-2-yl)pyrrolo[2,1-a]isoquinoline-1-carboxylate]	–	–	–	–	–	–	–	280	–	–	–
CCCCCCCCCCCCCCCCOP(=O)([O-])OCC[N+](C)(C)C [miltefosine]	–	–	–	–	–	–	–	–	–	–	0.31
